From ChEMBL document CHEMBL1127071, “Structure-activity relationships of C-terminal endothelin hexapeptide antagonists” (J Med Chem, 1993)
Values joined by “and” are separate entries in the source; they are usually repeats but may differ in a detail not shown here. Identical values can stand only once. Where a SMILES comes first, the peptide text is derived from it. [ ]: non-standard residue; d: D form. d2Nal = N[C@H](Cc1ccc2ccccc2c1)C(=O)O; Orn = NCCC[C@H](N)C(=O)O

Tests used:
[1] = molecular target: T1, Endothelin receptor type B (Rattus norvegicus, UniProt P21451); assay: Effective concentration against Endothelin B receptor from rat cerebellum; format: tissue-based
T1 sequence (P21451 whole entry): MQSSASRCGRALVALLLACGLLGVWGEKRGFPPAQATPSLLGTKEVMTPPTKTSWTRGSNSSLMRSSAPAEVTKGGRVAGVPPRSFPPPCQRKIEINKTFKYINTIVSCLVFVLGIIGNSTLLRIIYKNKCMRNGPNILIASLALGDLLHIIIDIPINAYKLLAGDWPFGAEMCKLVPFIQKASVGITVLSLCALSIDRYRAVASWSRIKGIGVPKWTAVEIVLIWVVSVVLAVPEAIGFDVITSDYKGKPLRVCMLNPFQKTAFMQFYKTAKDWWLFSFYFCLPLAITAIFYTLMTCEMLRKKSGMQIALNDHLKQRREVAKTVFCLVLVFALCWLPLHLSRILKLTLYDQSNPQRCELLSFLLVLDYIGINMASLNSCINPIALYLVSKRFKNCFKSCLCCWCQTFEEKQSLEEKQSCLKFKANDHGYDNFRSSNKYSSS

Endothelin receptor = molecular target: T2, Endothelin receptor (Rattus norvegicus, UniProt P26684+P21451); assay: Binding affinity against Endothelin receptor from rat heart ventricle; format: protein assay
T2 sequence (P26684 whole entry): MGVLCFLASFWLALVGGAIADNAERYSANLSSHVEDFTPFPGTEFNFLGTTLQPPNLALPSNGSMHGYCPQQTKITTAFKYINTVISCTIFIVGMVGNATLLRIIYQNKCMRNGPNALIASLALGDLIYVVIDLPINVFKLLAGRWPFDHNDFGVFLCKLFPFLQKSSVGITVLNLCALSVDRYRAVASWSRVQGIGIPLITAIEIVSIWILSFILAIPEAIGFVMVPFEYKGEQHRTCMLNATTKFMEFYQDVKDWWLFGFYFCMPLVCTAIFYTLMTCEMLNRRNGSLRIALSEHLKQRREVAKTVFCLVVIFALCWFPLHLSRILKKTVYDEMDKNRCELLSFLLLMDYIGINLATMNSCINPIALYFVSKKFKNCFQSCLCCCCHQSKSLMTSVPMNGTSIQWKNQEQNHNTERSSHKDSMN
T2 sequence (P21451 whole entry): T1 sequence (P21451 whole entry)

Oryctolagus cuniculus = organism: Oryctolagus cuniculus; assay: Inhibition of ET-1 stimulated arachidonic acid release in rabbit renal artery vascular smooth muscle cells; format: functional

IC50 [1] [nM] | IC50 (Endothelin receptor) | IC50 (Oryctolagus cuniculus) [nM] | Compound
> 10000 |  |  | CC[C@H](C)[C@H](NC(=O)[C@@H](Cc1ccccc1)NC(C)=O)C(=O)N[C@@H](Cc1c[nH]c2ccccc12)C(=O)O (Ac-[dF]-Ile-Trp-OH)
450 | 1610 nM | 1500 | CC[C@H](C)[C@H](NC(=O)[C@H](C)NC(=O)[C@H](CC(=O)O)NC(=O)[C@H](CC(C)C)NC(=O)[C@@H](Cc1ccccc1)NC(C)=O)C(=O)N[C@@H](Cc1c[nH]c2ccccc12)C(=O)O (Ac-[dF]LDAIW-OH)
2000 | 740 nM |  | CC[C@H](C)[C@H](NC(=O)[C@H](CC(=O)O)NC(=O)[C@H](CC(C)C)NC(=O)[C@@H](Cc1ccccc1)NC(C)=O)C(=O)N[C@H](C(=O)N[C@@H](Cc1c[nH]c2ccccc12)C(=O)O)[C@@H](C)CC (Ac-[dF]LDIIW-OH)
290 | 420 nM | 330 | CC[C@H](C)[C@H](NC(=O)[C@H](CC(=O)O)NC(=O)[C@H](C)NC(=O)[C@@H](Cc1ccccc1)NC(C)=O)C(=O)N[C@H](C(=O)N[C@@H](Cc1c[nH]c2ccccc12)C(=O)O)[C@@H](C)CC (Ac-[dF]ADIIW-OH)
> 10000 | 6830 nM | > 10000 | CC[C@H](C)[C@H](NC(=O)[C@H](CC(=O)O)NC(=O)[C@H](CC(C)C)NC(=O)[C@@H](Cc1ccccc1)NC(C)=O)C(=O)N[C@@H](C)C(=O)N[C@@H](Cc1c[nH]c2ccccc12)C(=O)O (Ac-[dF]LDIAW-OH)
> 10000 |  |  | CC[C@H](C)[C@H](NC(=O)[C@H](CC(=O)O)NC(=O)[C@H](CC(C)C)NC(=O)[C@@H](Cc1ccccc1)NC(C)=O)C(=O)N[C@H](C(=O)NC(Cc1cnc[nH]1)C(=O)O)[C@@H](C)CC (mixture of isomers)
> 10000 |  |  | CC[C@H](C)[C@H](NC(=O)[C@H](Cc1ccc(O)cc1)NC(=O)[C@@H](Cc1ccccc1)NC(C)=O)C(=O)N[C@H](C(=O)N[C@@H](Cc1c[nH]c2ccccc12)C(=O)O)[C@@H](C)CC
 | > 50000 nM |  | CC[C@H](C)[C@H](NC(=O)[C@H](CC(=O)O)NC(=O)[C@H](CC(C)C)NC(=O)[C@@H](Cc1ccccc1)NC(C)=O)C(=O)N[C@@H](CCCCN)C(=O)N[C@@H](Cc1c[nH]c2ccccc12)C(=O)O
2600 |  |  | CC[C@H](C)[C@H](NC(=O)[C@H](CC(=O)O)NC(=O)[C@H](CC(C)C)NC(=O)[C@@H](N)Cc1ccccc1)C(=O)N[C@H](C(=O)N[C@@H](Cc1c[nH]c2ccccc12)C(=O)O)[C@@H](C)CC
9800 | 3800 nM | > 10000 | CC[C@H](C)[C@H](NC(=O)[C@H](CC(=O)O)NC(=O)[C@H](CC(C)C)NC(=O)[C@@H](Cc1ccccc1)NC(C)=O)C(=O)N[C@H](C(=O)N[C@@H](Cc1csc2ccccc12)C(=O)O)[C@@H](C)CC

Further lines, the compound ahead of its results:

Compound | IC50 [1] [nM] | IC50 (Endothelin receptor) | IC50 (Oryctolagus cuniculus) [nM]
CC[C@H](C)[C@H](NC(=O)[C@H](CCCCN)NC(=O)[C@H](CC(C)C)NC(=O)[C@@H](Cc1ccccc1)NC(C)=O)C(=O)N[C@H](C(=O)N[C@@H](Cc1c[nH]c2ccccc12)C(=O)O)[C@@H](C)CC | > 10000 | 12000 nM | 
CC[C@H](C)[C@H](NC(=O)[C@H](CC(=O)O)NC(=O)[C@@H](Cc1ccccc1)NC(C)=O)C(=O)N[C@H](C(=O)N[C@@H](Cc1c[nH]c2ccccc12)C(=O)O)[C@@H](C)CC (Ac-[dF]DIIW-OH) |  | 2150 nM | 
CC[C@H](C)[C@H](NC(=O)[C@H](CCC(=O)O)NC(=O)[C@H](CC(=O)O)NC(=O)[C@H](CC(C)C)NC(=O)[C@@H](Cc1ccccc1)NC(C)=O)C(=O)N[C@@H](Cc1c[nH]c2ccccc12)C(=O)O | > 10000 | 9000 nM | > 10000
CC[C@H](C)[C@H](NC(=O)[C@H](CC(=O)O)NC(=O)[C@H](Cc1ccccc1)NC(=O)[C@@H](Cc1ccccc1)NC(C)=O)C(=O)N[C@H](C(=O)N[C@@H](Cc1c[nH]c2ccccc12)C(=O)O)[C@@H](C)CC (stereo in doubt; 21) | 20 |  | 2200
CC[C@H](C)[C@H](NC(=O)[C@H](Cc1ccccc1)NC(=O)[C@H](CC(=O)O)NC(=O)[C@@H](Cc1ccccc1)NC(C)=O)C(=O)N[C@@H](Cc1c[nH]c2ccccc12)C(=O)O (Ac-[dF]DFIW-OH) | 4600 |  | 
CC[C@H](C)[C@H](NC(=O)[C@H](CC(=O)O)NC(=O)[C@H](Cc1ccccc1)NC(=O)[C@@H](Cc1ccccc1)NC(C)=O)C(=O)N[C@H](C(=O)N[C@@H](Cc1c[nH]c2ccccc12)C(=O)O)[C@@H](C)CC (stereo in doubt; 20) | 60 | 330 nM | 
CC[C@H](C)[C@H](NC(=O)[C@H](CCCCN)NC(=O)[C@H](CC(=O)O)NC(=O)[C@H](CC(C)C)NC(=O)[C@@H](Cc1ccccc1)NC(C)=O)C(=O)N[C@@H](Cc1c[nH]c2ccccc12)C(=O)O | > 10000 | > 50000 nM | 
CC[C@H](C)[C@H](NC(=O)[C@H](CC(=O)O)NC(=O)[C@H](CCCN)NC(=O)[C@@H](Cc1ccccc1)NC(C)=O)C(=O)N[C@H](C(=O)N[C@@H](Cc1c[nH]c2ccccc12)C(=O)O)[C@@H](C)CC (Ac-[dF][Orn]DIIW-OH) | 2450 | 680 nM | 
CC[C@H](C)[C@H](NC(=O)[C@H](CC(=O)O)NC(=O)[C@H](CC(C)C)NC(=O)[C@@H](Cc1ccccc1)NC(C)=O)C(=O)N[C@@H](CCC(=O)O)C(=O)N[C@@H](Cc1c[nH]c2ccccc12)C(=O)O |  | 5200 nM | 
CC[C@H](C)[C@H](NC(=O)[C@H](CC(=O)O)NC(=O)[C@H](CC(C)C)NC(=O)[C@@H](Cc1ccc(O)cc1)NC(C)=O)C(=O)N[C@H](C(=O)N[C@@H](Cc1c[nH]c2ccccc12)C(=O)O)[C@@H](C)CC (Ac-[dY]LDIIW-OH) | 7000 |  | 250
CC[C@H](C)[C@H](NC(=O)[C@H](CC(=O)O)NC(=O)[C@H](CC(C)C)NC(=O)[C@H](Cc1c[nH]cn1)NC(C)=O)C(=O)N[C@H](C(=O)N[C@H](Cc1c[nH]c2ccccc12)C(=O)O)[C@@H](C)CC |  | > 50000 nM | 
CC[C@H](C)[C@H](NC(=O)[C@@H](NC(=O)[C@@H](Cc1ccccc1)NC(C)=O)[C@@H](C)CC)C(=O)N[C@@H](Cc1c[nH]c2ccccc12)C(=O)O (Ac-[dF]IIW-OH) | > 10000 |  | 
CC[C@H](C)[C@H](NC(=O)[C@H](CC(=O)O)NC(=O)[C@H](CCC(=O)O)NC(=O)[C@@H](Cc1ccccc1)NC(C)=O)C(=O)N[C@@H](Cc1c[nH]c2ccccc12)C(=O)O | 840 | 740 nM | 600
CC[C@H](C)[C@H](NC(=O)[C@H](CC(=O)O)NC(=O)[C@H](CC(C)C)NC(=O)[C@@H](Cc1c[nH]cn1)NC(C)=O)C(=O)N[C@H](C(=O)N[C@@H](Cc1c[nH]c2ccccc12)C(=O)O)[C@@H](C)CC | 9100 | 4100 nM and 4500 nM | 
CC[C@H](C)[C@H](NC(=O)[C@H](CC(=O)O)NC(=O)[C@H](CC(C)C)NC(=O)[C@@H](Cc1ccccc1)NC(C)=O)C(=O)N[C@@H](Cc1c[nH]c2ccccc12)C(=O)O (Ac-[dF]LDIW-OH) | > 10000 | 24500 nM | 
CC[C@H](C)[C@H](NC(=O)[C@H](CC(=O)O)NC(=O)[C@H](CC(C)C)NC(=O)[C@H](N)Cc1ccccc1)C(=O)N[C@H](C(=O)N[C@@H](Cc1c[nH]c2ccccc12)C(=O)O)[C@@H](C)CC | 2600 | 12400 nM | 
CC[C@H](C)[C@H](NC(=O)[C@H](Cc1ccccc1)NC(=O)[C@H](CC(C)C)NC(=O)[C@@H](Cc1ccccc1)NC(C)=O)C(=O)N[C@H](C(=O)N[C@@H](Cc1c[nH]c2ccccc12)C(=O)O)[C@@H](C)CC (Ac-[dF]LFIIW-OH) | 36 | 380 nM | 
CC[C@H](C)[C@H](NC(=O)[C@H](CC(=O)O)NC(=O)[C@H](CC(C)C)NC(=O)[C@@H](Cc1ccccc1)NC(C)=O)C(=O)N[C@H](C(=O)N[C@@H](Cc1ccc(O)cc1)C(=O)O)[C@@H](C)CC (Ac-[dF]LDIIY-OH) | 150 |  | 
CC[C@H](C)[C@H](NC(=O)[C@H](CC(=O)O)NC(=O)[C@@H](CC(C)C)NC(=O)[C@H](Cc1c[nH]cn1)NC(C)=O)C(=O)N[C@H](C(=O)N[C@@H](Cc1c[nH]c2ccccc12)C(=O)O)[C@@H](C)CC |  | 39000 nM | 
CC[C@H](C)[C@H](NC(=O)[C@H](CC(=O)O)NC(=O)[C@H](CC(C)C)NC(=O)[C@@H](Cc1ccc2ccccc2c1)NC(C)=O)C(=O)N[C@H](C(=O)N[C@@H](Cc1c[nH]c2ccccc12)C(=O)O)[C@@H](C)CC (Ac-[d2Nal]LDIIW-OH) |  |  | 1900
Ac-FLDIIW-OH | 18500 |  | 
CC[C@@H](C)[C@@H](NC(=O)[C@H](CC(=O)O)NC(=O)[C@H](CC(C)C)NC(=O)[C@H](Cc1c[nH]cn1)NC(C)=O)C(=O)N[C@H](C(=O)N[C@@H](Cc1c[nH]c2ccccc12)C(=O)O)[C@@H](C)CC |  | 169000 nM | 
